Measurements: ChEMBL document CHEMBL4507270 (2021)

Assays:
[1] = target: Ephrin type-A receptor 1 (Homo sapiens) (UniProt P21709)
[2] = target: Non-receptor tyrosine-protein kinase TNK1 (Homo sapiens) (UniProt Q13470)
[3] = target: Serine/threonine-protein kinase SBK1 (Homo sapiens) (UniProt Q52WX2)
[4] = target: Phosphatidylinositol 4-kinase beta (Homo sapiens) (UniProt Q9UBF8)
[5] = target: Protein-tyrosine kinase 6 (Homo sapiens) (UniProt Q13882)
[6] = target: Serine/threonine-protein kinase SIK1 (Homo sapiens) (UniProt P57059)
[7] = target: Serine/threonine-protein kinase MRCK beta (Homo sapiens) (UniProt Q9Y5S2)
[8] = target: Beta-3 adrenergic receptor (Homo sapiens, UniProt P13945); conditions: Compound concentration 10.0 uM
[9] = target: Ribosomal protein S6 kinase alpha-4 (Homo sapiens) (UniProt O75676)
[10] = target: Receptor-type tyrosine-protein kinase FLT3 (Homo sapiens) (UniProt P36888)
[11] = target: Cyclin-dependent kinase 16 (Homo sapiens) (UniProt Q00536)
[12] = target: Cyclin-dependent kinase 13 (Homo sapiens) (UniProt Q14004)
[13] = target: Serine/threonine-protein kinase 32A (Homo sapiens) (UniProt Q8WU08)
[14] = target: NUAK family SNF1-like kinase 2 (Homo sapiens) (UniProt Q9H093)
[15] = target: Myosin-IIIa (Homo sapiens) (UniProt Q8NEV4)
[16] = tested on: Epidermal growth factor receptor (Homo sapiens), P00533 [UNDEFINED MUTATION]
[17] = tested on: Mast/stem cell growth factor receptor Kit (Homo sapiens), P10721 [V559D]
[18] = target: Cyclin-dependent kinase 8 (Homo sapiens) (UniProt P49336)
[19] = target: Serine/threonine-protein kinase 32C (Homo sapiens) (UniProt Q86UX6)
[20] = target: Mitogen-activated protein kinase 7 (Homo sapiens) (UniProt Q13164)
[21] = target: Protein kinase C theta type (Homo sapiens) (UniProt Q04759)
[22] = target: Serine/threonine-protein kinase RIO1 (Homo sapiens) (UniProt Q9BRS2)
[23] = target: 5-hydroxytryptamine receptor 1E (Homo sapiens) (UniProt P28566); conditions: Compound concentration 10.0 uM
[24] = target: Serine/threonine-protein kinase 10 (Homo sapiens, UniProt O94804)
[25] = target: Ephrin type-B receptor 2 (Homo sapiens) (UniProt P29323)
[26] = target: Non-receptor tyrosine-protein kinase TYK2 (Homo sapiens) (UniProt P29597)
[27] = target: 3-phosphoinositide-dependent protein kinase 1 (Homo sapiens) (UniProt O15530)
[28] = target: Calcium/calmodulin-dependent protein kinase type 1G (Homo sapiens) (UniProt Q96NX5)
[29] = target: Tyrosine-protein kinase TXK (Homo sapiens) (UniProt P42681)
[30] = target: Tyrosine-protein kinase Fer (Homo sapiens) (UniProt P16591)
[31] = target: Mitogen-activated protein kinase kinase kinase 9 (Homo sapiens) (UniProt P80192)
[32] = target: Receptor tyrosine-protein kinase erbB-3 (Homo sapiens) (UniProt P21860)
[33] = target: Serine/threonine-protein kinase PknB (Mycobacterium tuberculosis) (UniProt P9WI81)
[34] = target: Phosphatidylinositol 3-kinase catalytic subunit type 3 (Homo sapiens) (UniProt Q8NEB9)
[35] = target: Serine/threonine-protein kinase NIM1 (Homo sapiens) (UniProt Q8IY84)
[36] = target: Cyclin-dependent kinase 14 (Homo sapiens) (UniProt O94921)
[37] = target: Ribosomal protein S6 kinase alpha-2 (Homo sapiens) (UniProt Q15349)
[38] = target: Cyclin-dependent kinase-like 1 (Homo sapiens) (UniProt Q00532)
[39] = target: Cyclin-dependent kinase 5 (Homo sapiens) (UniProt Q00535)
[40] = target: Activin receptor type-2B (Homo sapiens) (UniProt Q13705)
[41] = target: Mitogen-activated protein kinase kinase kinase 4 (Homo sapiens) (UniProt Q9Y6R4)
[42] = Compound concentration 100.0 nM
[43] = Compound concentration 1000.0 nM

Ephrin type-A receptor 1 (Homo sapiens), sequence (P21709 whole entry): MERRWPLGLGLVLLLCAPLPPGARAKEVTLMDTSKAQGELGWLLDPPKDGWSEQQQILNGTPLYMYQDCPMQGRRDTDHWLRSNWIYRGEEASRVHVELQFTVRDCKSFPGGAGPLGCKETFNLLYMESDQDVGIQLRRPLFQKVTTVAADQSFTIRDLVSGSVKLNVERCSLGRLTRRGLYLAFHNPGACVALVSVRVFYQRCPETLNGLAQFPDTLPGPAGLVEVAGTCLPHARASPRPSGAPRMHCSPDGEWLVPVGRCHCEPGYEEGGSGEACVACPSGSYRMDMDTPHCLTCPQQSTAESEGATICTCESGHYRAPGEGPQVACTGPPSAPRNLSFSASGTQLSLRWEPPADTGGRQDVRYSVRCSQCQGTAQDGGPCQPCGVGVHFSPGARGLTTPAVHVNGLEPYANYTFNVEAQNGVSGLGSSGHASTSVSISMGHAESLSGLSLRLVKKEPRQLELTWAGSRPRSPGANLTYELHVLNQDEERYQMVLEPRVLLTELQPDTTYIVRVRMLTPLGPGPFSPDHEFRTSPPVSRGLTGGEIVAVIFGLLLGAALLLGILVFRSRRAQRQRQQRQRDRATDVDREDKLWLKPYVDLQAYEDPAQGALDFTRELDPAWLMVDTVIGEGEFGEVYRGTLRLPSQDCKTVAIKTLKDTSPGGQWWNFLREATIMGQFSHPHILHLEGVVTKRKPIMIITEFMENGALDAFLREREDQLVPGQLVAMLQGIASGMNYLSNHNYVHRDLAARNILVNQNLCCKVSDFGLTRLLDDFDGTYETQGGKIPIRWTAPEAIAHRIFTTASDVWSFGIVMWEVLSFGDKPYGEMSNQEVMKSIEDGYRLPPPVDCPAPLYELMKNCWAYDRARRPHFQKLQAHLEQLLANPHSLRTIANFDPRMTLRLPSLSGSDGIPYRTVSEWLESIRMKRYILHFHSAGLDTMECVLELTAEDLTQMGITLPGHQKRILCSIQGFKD
Serine/threonine-protein kinase 32C (Homo sapiens), sequence (Q86UX6 whole entry): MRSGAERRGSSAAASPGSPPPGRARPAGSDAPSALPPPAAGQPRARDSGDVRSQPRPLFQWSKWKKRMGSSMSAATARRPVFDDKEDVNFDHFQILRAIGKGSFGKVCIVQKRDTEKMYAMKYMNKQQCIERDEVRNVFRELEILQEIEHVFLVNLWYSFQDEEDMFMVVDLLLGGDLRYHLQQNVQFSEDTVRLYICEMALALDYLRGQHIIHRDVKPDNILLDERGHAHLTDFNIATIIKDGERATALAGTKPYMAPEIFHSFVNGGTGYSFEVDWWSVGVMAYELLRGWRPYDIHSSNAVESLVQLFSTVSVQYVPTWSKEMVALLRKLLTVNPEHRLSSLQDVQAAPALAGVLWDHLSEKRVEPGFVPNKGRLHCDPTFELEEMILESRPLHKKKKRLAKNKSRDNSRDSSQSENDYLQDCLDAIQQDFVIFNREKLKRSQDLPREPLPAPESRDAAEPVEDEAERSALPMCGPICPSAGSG
Cyclin-dependent kinase 5 (Homo sapiens), sequence (Q00535 whole entry, looked up): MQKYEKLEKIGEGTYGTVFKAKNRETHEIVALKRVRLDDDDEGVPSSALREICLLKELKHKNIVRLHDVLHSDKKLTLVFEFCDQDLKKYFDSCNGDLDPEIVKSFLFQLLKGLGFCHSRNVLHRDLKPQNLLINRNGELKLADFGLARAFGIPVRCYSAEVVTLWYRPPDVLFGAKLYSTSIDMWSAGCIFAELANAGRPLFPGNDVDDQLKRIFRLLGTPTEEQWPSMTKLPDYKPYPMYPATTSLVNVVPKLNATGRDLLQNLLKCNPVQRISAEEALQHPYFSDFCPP
Ribosomal protein S6 kinase alpha-4 (Homo sapiens), sequence (O75676 whole entry, looked up): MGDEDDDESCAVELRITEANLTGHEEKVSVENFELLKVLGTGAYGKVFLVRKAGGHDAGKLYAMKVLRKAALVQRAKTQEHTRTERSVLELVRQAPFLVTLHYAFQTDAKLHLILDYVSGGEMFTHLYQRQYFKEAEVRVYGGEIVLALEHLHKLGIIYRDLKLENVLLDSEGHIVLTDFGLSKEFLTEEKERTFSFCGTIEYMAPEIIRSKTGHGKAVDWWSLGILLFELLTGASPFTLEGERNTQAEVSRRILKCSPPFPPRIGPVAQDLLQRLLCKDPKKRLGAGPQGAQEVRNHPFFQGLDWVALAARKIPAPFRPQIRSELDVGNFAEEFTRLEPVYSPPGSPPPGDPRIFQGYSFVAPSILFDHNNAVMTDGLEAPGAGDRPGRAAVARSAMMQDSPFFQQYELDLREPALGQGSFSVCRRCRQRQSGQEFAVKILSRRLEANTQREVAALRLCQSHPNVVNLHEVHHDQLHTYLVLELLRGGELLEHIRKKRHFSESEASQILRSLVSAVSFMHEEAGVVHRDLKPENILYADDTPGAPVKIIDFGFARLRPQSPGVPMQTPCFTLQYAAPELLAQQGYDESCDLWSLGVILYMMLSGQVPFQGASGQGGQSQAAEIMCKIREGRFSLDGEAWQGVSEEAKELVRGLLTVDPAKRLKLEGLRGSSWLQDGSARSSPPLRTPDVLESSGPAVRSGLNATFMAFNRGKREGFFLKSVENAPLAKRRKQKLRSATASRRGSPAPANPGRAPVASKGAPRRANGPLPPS
Cyclin-dependent kinase 14 (Homo sapiens), sequence (O94921 whole entry): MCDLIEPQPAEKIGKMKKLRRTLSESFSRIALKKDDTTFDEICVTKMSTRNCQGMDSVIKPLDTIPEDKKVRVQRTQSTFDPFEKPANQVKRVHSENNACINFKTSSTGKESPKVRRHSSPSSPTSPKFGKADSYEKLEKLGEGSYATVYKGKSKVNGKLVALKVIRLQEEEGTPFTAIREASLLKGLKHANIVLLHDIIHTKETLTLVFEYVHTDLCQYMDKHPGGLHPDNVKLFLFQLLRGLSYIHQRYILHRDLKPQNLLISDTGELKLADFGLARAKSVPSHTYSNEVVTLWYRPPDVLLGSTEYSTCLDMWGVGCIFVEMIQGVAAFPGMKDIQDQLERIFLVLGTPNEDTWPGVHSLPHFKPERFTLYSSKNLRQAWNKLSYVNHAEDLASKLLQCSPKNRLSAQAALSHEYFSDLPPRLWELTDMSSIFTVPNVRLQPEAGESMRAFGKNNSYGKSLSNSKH
Mitogen-activated protein kinase kinase kinase 4 (Homo sapiens), sequence (Q9Y6R4 whole entry): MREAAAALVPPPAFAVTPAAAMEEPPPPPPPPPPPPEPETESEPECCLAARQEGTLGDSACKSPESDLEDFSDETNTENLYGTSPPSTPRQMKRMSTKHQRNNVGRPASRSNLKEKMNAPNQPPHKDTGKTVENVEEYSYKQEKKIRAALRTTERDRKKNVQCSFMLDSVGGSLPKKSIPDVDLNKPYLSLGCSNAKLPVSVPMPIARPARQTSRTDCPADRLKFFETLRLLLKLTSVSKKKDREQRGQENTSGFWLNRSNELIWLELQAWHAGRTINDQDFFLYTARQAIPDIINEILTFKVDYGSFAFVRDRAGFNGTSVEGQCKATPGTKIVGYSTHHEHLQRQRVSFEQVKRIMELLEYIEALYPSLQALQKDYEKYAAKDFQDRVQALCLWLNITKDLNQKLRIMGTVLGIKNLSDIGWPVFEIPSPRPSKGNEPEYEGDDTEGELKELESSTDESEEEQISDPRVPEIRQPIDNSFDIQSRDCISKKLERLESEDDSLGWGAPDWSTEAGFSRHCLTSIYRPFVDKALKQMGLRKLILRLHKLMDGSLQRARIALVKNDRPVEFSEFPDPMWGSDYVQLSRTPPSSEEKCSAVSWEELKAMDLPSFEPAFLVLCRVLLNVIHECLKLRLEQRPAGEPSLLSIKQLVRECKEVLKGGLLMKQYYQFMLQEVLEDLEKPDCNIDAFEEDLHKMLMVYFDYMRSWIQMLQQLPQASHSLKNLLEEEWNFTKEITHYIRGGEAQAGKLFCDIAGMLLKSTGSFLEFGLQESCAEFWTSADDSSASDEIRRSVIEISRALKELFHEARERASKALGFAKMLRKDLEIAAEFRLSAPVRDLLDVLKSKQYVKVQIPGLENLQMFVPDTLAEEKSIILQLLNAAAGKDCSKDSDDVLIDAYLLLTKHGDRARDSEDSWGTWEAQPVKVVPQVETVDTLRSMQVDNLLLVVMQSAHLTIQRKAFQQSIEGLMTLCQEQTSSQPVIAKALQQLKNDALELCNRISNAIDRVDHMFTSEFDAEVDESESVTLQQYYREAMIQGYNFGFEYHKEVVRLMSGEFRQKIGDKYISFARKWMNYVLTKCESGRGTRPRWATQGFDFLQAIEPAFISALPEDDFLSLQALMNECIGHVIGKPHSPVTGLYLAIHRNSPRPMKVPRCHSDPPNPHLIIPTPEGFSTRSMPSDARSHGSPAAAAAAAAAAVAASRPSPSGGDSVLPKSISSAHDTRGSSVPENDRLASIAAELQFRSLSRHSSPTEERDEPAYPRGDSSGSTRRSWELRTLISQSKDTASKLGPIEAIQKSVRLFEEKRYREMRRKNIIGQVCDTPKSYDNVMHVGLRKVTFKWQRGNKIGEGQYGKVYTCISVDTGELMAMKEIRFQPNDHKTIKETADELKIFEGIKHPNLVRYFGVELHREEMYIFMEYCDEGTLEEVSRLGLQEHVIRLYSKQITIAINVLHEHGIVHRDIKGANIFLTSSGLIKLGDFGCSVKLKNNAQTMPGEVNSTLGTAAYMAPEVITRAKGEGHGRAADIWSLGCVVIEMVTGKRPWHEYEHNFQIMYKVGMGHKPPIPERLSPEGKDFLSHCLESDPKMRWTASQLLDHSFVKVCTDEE
Cyclin-dependent kinase 8 (Homo sapiens), sequence (P49336 whole entry): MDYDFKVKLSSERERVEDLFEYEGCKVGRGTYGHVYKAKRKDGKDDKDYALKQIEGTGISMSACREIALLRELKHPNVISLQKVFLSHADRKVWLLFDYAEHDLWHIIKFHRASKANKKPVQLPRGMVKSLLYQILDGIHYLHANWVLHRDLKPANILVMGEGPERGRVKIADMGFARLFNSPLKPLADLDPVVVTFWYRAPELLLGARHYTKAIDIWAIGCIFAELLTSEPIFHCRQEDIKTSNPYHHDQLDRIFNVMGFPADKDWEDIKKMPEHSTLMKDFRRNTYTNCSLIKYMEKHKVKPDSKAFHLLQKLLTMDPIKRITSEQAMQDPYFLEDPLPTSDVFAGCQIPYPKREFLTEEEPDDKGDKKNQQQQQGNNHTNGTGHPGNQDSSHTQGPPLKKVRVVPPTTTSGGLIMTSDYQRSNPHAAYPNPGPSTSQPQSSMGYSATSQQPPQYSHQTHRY

Cc1cc(C)c(-n2ccn3nc(-c4cccnc4)cc23)cc1NC(=O)c1cc(C#N)cc(S(F)(F)(F)(F)F)c1 [BAY-826]
residual activity [1, 42]: 100% | residual activity [2, 42]: 87.6% | residual activity [3, 42]: 82.2% | residual activity [4, 42]: 64.7% | residual activity [5, 42]: 99.5% | residual activity [6, 42]: 86.3% | residual activity [7, 42]: 95.5% | inhibition [8]: 52.3% | residual activity [9, 42]: 79.3% | residual activity [10, 42]: 100% | residual activity [11, 42]: 92.5% | residual activity [12, 42]: 59% | residual activity [13, 42]: 100% | residual activity [14, 42]: 86.1% | residual activity [15, 42]: 94.9% | residual activity [16, 42]: 78.7% | residual activity [17, 42]: 45.6% | residual activity [18, 42]: 76.7% | residual activity [19, 42]: 83.4% | residual activity [20, 42]: 100% | residual activity [21, 42]: 100% | residual activity [22, 42]: 100% | inhibition [23]: 3.57% | residual activity [24, 42]: 1.8% | residual activity [25, 42]: 71.4% | residual activity [26, 42]: 87.3% | residual activity [27, 42]: 100% | residual activity [28, 42]: 100% | residual activity [29, 42]: 98.3% | residual activity [30, 42]: 100% | residual activity [31, 42]: 79.5% | residual activity [32, 42]: 96.2% | residual activity [33, 42]: 62.5% | residual activity [34, 42]: 84.9% | residual activity [35, 42]: 98.9% | residual activity [36, 42]: 100% | residual activity [37, 42]: 90.9% | residual activity [38, 42]: 77.4% | residual activity [39, 42]: 95.6% | residual activity [40, 42]: 88.7% | residual activity [41, 42]: 98.1%

Cc1cc(NC(=O)c2cccc(S(F)(F)(F)(F)F)c2)cc(-n2ccn3nc(-c4cccnc4)cc23)c1 [BAY-309]
residual activity [1, 43]: 100% | residual activity [2, 43]: 95% | residual activity [3, 43]: 100% | residual activity [4, 43]: 78.6% | residual activity [5, 43]: 100% | residual activity [6, 43]: 100% | residual activity [7, 43]: 100% | inhibition [8]: 32.3% | residual activity [9, 43]: 100% | residual activity [10, 43]: 100% | residual activity [11, 43]: 100% | residual activity [12, 43]: 64.2% | residual activity [13, 43]: 100% | residual activity [14, 43]: 100% | residual activity [15, 43]: 100% | residual activity [16, 43]: 98.7% | residual activity [17, 43]: 73.5% | residual activity [18, 43]: 86.2% | residual activity [19, 43]: 75.8% | residual activity [20, 43]: 90% | residual activity [21, 43]: 60.3% | residual activity [22, 43]: 100% | inhibition [23]: 19.9% | residual activity [24, 43]: 26.8% | residual activity [25, 43]: 100% | residual activity [26, 43]: 100% | residual activity [27, 43]: 92% | residual activity [28, 43]: 100% | residual activity [29, 43]: 56.2% | residual activity [30, 43]: 59.4% | residual activity [31, 43]: 77.7% | residual activity [32, 43]: 49.4% | residual activity [33, 43]: 63.7% | residual activity [34, 43]: 76.6% | residual activity [35, 43]: 100% | residual activity [36, 43]: 93.8% | residual activity [37, 43]: 84% | residual activity [38, 43]: 84.5% | residual activity [39, 43]: 100% | residual activity [40, 43]: 100% | residual activity [41, 43]: 53.6%
